Test results taken from ChEMBL document CHEMBL1146921, “Synthesis and antibacterial activity of 6-O-heteroarylcarbamoyl-11,12-lactoketolides” (2006).
In brackets after ≈: the same amount, converted by molar mass.

Experiments:
Assay type in all cases: functional
Streptococcus pneumoniae [1] = experiment: Antibacterial activity against erythromycin-susceptible Streptococcus pneumoniae ATCC 6301
Streptococcus pneumoniae [2] = experiment: Antibacterial activity against erythromycin-resistant Streptococcus pneumoniae OC4421
Haemophilus influenzae = experiment: Antibacterial activity against Haemophilus influenzae OC4882
Streptococcus pneumoniae [3] = experiment: Antibacterial activity against erythromycin-resistant Streptococcus pneumoniae OC4051
Staphylococcus aureus [4] = experiment: Antibacterial activity against Staphylococcus aureus Smith OC4172
Staphylococcus aureus [5] = experiment: Antibacterial activity against Staphylococcus aureus Smith OC4172 in presence of 50% mouse serum

CC[C@H]1OC(=O)[C@H](C)C(=O)[C@H](C)[C@@H](O[C@@H]2O[C@H](C)C[C@H](N(C)C)[C@H]2O)[C@](C)(OC(=O)NC/C=C/c2cccnc2)C[C@@H](C)C(=O)[C@H](C)[C@H]2CC(=O)O[C@@]21C
MIC (Streptococcus pneumoniae [1]): 0.03 µg/mL (≈ 0.0396 µM)
MIC (Streptococcus pneumoniae [2]): 0.5 µg/mL (≈ 0.66 µM)
MIC (Haemophilus influenzae): 4 µg/mL (≈ 5.28 µM)
MIC (Streptococcus pneumoniae [3]): 2 µg/mL (≈ 2.64 µM)
MIC (Staphylococcus aureus [4]): 1 µg/mL (≈ 1.32 µM)
MIC (Staphylococcus aureus [5]): 1 µg/mL

CC[C@H]1OC(=O)[C@H](C)C(=O)[C@H](C)[C@@H](O[C@@H]2O[C@H](C)C[C@H](N(C)C)[C@H]2O)[C@](C)(OC(=O)NCc2ccc3ncccc3c2)C[C@@H](C)C(=O)[C@H](C)[C@H]2CC(=O)O[C@@]21C
MIC (Streptococcus pneumoniae [1]): 0.06 µg/mL (≈ 0.0767 µM)
MIC (Streptococcus pneumoniae [2]): 0.5 µg/mL (≈ 0.639 µM)
MIC (Haemophilus influenzae): 8 µg/mL (≈ 10.2 µM)
MIC (Streptococcus pneumoniae [3]): 2 µg/mL (≈ 2.56 µM)
MIC (Staphylococcus aureus [4]): 1 µg/mL (≈ 1.28 µM)
MIC (Staphylococcus aureus [5]): 4 µg/mL

CC[C@H]1OC(=O)[C@H](C)C(=O)[C@H](C)[C@@H](O[C@@H]2O[C@H](C)C[C@H](N(C)C)[C@H]2O)[C@](C)(OC(=O)NCc2ccc(-c3ccccn3)cc2)C[C@@H](C)C(=O)[C@H](C)[C@H]2CC(=O)O[C@@]21C
MIC (Streptococcus pneumoniae [1]): 0.03 µg/mL (≈ 0.0371 µM)
MIC (Streptococcus pneumoniae [2]): 0.5 µg/mL (≈ 0.619 µM)
MIC (Haemophilus influenzae): 16 µg/mL (≈ 19.8 µM)
MIC (Streptococcus pneumoniae [3]): 0.25 µg/mL (≈ 0.309 µM)
MIC (Staphylococcus aureus [4]): 1 µg/mL (≈ 1.24 µM)
MIC (Staphylococcus aureus [5]): 8 µg/mL

CC[C@H]1OC(=O)[C@H](C)C(=O)[C@H](C)[C@@H](O[C@@H]2O[C@H](C)C[C@H](N(C)C)[C@H]2O)[C@](C)(OC(=O)NC/C=C/c2ccc3ncccc3c2)C[C@@H](C)C(=O)[C@H](C)[C@H]2CC(=O)O[C@@]21C
MIC (Streptococcus pneumoniae [1]): 0.03 µg/mL (≈ 0.0371 µM)
MIC (Streptococcus pneumoniae [2]): 0.25 µg/mL (≈ 0.309 µM)
MIC (Haemophilus influenzae): 2 µg/mL (≈ 2.48 µM)
MIC (Streptococcus pneumoniae [3]): 0.12 µg/mL (≈ 0.149 µM)
MIC (Staphylococcus aureus [4]): 0.5 µg/mL (≈ 0.619 µM)
MIC (Staphylococcus aureus [5]): 2 µg/mL

CC[C@H]1OC(=O)[C@H](C)C(=O)[C@H](C)[C@@H](O[C@@H]2O[C@H](C)C[C@H](N(C)C)[C@H]2O)[C@](C)(OC(=O)NC/C=C/c2ccc3nccnc3c2)C[C@@H](C)C(=O)[C@H](C)[C@H]2CC(=O)O[C@@]21C
MIC (Streptococcus pneumoniae [1]): 0.03 µg/mL (≈ 0.0371 µM)
MIC (Streptococcus pneumoniae [2]): 0.5 µg/mL (≈ 0.618 µM)
MIC (Haemophilus influenzae): 4 µg/mL (≈ 4.94 µM)
MIC (Streptococcus pneumoniae [3]): 0.25 µg/mL (≈ 0.309 µM)
MIC (Staphylococcus aureus [4]): 0.5 µg/mL (≈ 0.618 µM)
MIC (Staphylococcus aureus [5]): 2 µg/mL

CC[C@H]1OC(=O)[C@H](C)C(=O)[C@H](C)[C@@H](O[C@@H]2O[C@H](C)C[C@H](N(C)C)[C@H]2O)[C@](C)(OC(=O)NC/C=C/c2ccc(-c3ccccn3)cc2)C[C@@H](C)C(=O)[C@H](C)[C@H]2CC(=O)O[C@@]21C
MIC (Streptococcus pneumoniae [1]): 0.06 µg/mL (≈ 0.0719 µM)
MIC (Streptococcus pneumoniae [2]): 0.5 µg/mL (≈ 0.6 µM)
MIC (Haemophilus influenzae): 8 µg/mL (≈ 9.59 µM)
MIC (Streptococcus pneumoniae [3]): 0.25 µg/mL (≈ 0.3 µM)
MIC (Staphylococcus aureus [4]): 0.5 µg/mL (≈ 0.6 µM)
MIC (Staphylococcus aureus [5]): 2 µg/mL

CC[C@H]1OC(=O)[C@H](C)C(=O)[C@H](C)[C@@H](O[C@@H]2O[C@H](C)C[C@H](N(C)C)[C@H]2O)[C@](C)(OC(=O)NCc2cnc3ccccc3c2)C[C@@H](C)C(=O)[C@H](C)[C@H]2CC(=O)O[C@@]21C
MIC (Streptococcus pneumoniae [1]): 0.06 µg/mL (≈ 0.0767 µM)
MIC (Streptococcus pneumoniae [2]): 0.5 µg/mL (≈ 0.639 µM)
MIC (Haemophilus influenzae): 8 µg/mL (≈ 10.2 µM)
MIC (Streptococcus pneumoniae [3]): 0.5 µg/mL (≈ 0.639 µM)
MIC (Staphylococcus aureus [4]): 0.5 µg/mL (≈ 0.639 µM)
MIC (Staphylococcus aureus [5]): 4 µg/mL

CC[C@H]1OC(=O)[C@H](C)C(=O)[C@H](C)[C@@H](O[C@@H]2O[C@H](C)C[C@H](N(C)C)[C@H]2O)[C@](C)(OC(=O)NC/C=C/c2cncc3ccccc23)C[C@@H](C)C(=O)[C@H](C)[C@H]2CC(=O)O[C@@]21C
MIC (Streptococcus pneumoniae [1]): ≤ 0.015 µg/mL
MIC (Streptococcus pneumoniae [2]): 0.25 µg/mL (≈ 0.309 µM)
MIC (Haemophilus influenzae): 4 µg/mL (≈ 4.95 µM)
MIC (Streptococcus pneumoniae [3]): 0.25 µg/mL (≈ 0.309 µM)
MIC (Staphylococcus aureus [4]): 0.5 µg/mL (≈ 0.619 µM)
MIC (Staphylococcus aureus [5]): 4 µg/mL

CC[C@H]1OC(=O)[C@H](C)C(=O)[C@H](C)[C@@H](O[C@@H]2O[C@H](C)C[C@H](N(C)C)[C@H]2O)[C@](C)(OC(=O)NC/C=C/c2ccc3cccnc3c2)C[C@@H](C)C(=O)[C@H](C)[C@H]2CC(=O)O[C@@]21C
MIC (Streptococcus pneumoniae [1]): 0.03 µg/mL (≈ 0.0371 µM)
MIC (Streptococcus pneumoniae [2]): 0.25 µg/mL (≈ 0.309 µM)
MIC (Haemophilus influenzae): 2 µg/mL (≈ 2.48 µM)
MIC (Streptococcus pneumoniae [3]): 0.12 µg/mL (≈ 0.149 µM)
MIC (Staphylococcus aureus [4]): 0.25 µg/mL (≈ 0.309 µM)
MIC (Staphylococcus aureus [5]): 4 µg/mL

CC[C@H]1OC(=O)[C@H](C)C(=O)[C@H](C)[C@@H](O[C@@H]2O[C@H](C)C[C@H](N(C)C)[C@H]2O)[C@](C)(OC(=O)NC/C=C/c2cnc3ccccc3c2)C[C@@H](C)C(=O)[C@H](C)[C@H]2CC(=O)O[C@@]21C
MIC (Streptococcus pneumoniae [1]): ≤ 0.015 µg/mL
MIC (Streptococcus pneumoniae [2]): 0.25 µg/mL (≈ 0.309 µM)
MIC (Haemophilus influenzae): 8 µg/mL (≈ 9.9 µM)
MIC (Streptococcus pneumoniae [3]): 0.12 µg/mL (≈ 0.149 µM)
MIC (Staphylococcus aureus [4]): 0.5 µg/mL (≈ 0.619 µM)
MIC (Staphylococcus aureus [5]): 2 µg/mL

CC[C@H]1OC(=O)[C@H](C)C(=O)[C@H](C)[C@@H](O[C@@H]2O[C@H](C)C[C@H](N(C)C)[C@H]2O)[C@](C)(OC(=O)NC/C=C/c2ccc(-c3ccccc3)nc2)C[C@@H](C)C(=O)[C@H](C)[C@H]2CC(=O)O[C@@]21C
MIC (Streptococcus pneumoniae [2]): 0.5 µg/mL (≈ 0.6 µM)
MIC (Haemophilus influenzae): 8 µg/mL (≈ 9.59 µM)
MIC (Streptococcus pneumoniae [3]): 0.5 µg/mL (≈ 0.6 µM)
MIC (Staphylococcus aureus [4]): 0.5 µg/mL (≈ 0.6 µM)
MIC (Staphylococcus aureus [5]): 2 µg/mL

CC[C@H]1OC(=O)[C@H](C)C(=O)[C@H](C)[C@@H](O[C@@H]2O[C@H](C)C[C@H](N(C)C)[C@H]2O)[C@](C)(OC(=O)NC/C=C/c2ccc(-c3ncccn3)cc2)C[C@@H](C)C(=O)[C@H](C)[C@H]2NC(=O)O[C@@]21C
MIC (Streptococcus pneumoniae [1]): 0.03 µg/mL (≈ 0.0359 µM)
MIC (Streptococcus pneumoniae [2]): 0.06 µg/mL (≈ 0.0718 µM)
MIC (Haemophilus influenzae): 4 µg/mL (≈ 4.78 µM)
MIC (Streptococcus pneumoniae [3]): 0.06 µg/mL (≈ 0.0718 µM)
MIC (Staphylococcus aureus [4]): 0.12 µg/mL (≈ 0.144 µM)
MIC (Staphylococcus aureus [5]): 0.25 µg/mL

CC[C@H]1OC(=O)[C@H](C)C(=O)[C@H](C)[C@@H](O[C@@H]2O[C@H](C)C[C@H](N(C)C)[C@H]2O)[C@](C)(OC(=O)NC/C=C/c2ccc(-c3ncccn3)cc2)C[C@@H](C)C(=O)[C@@H](C)[C@H]2CC(=O)O[C@@]21C
MIC (Streptococcus pneumoniae [1]): 0.12 µg/mL (≈ 0.144 µM)
MIC (Streptococcus pneumoniae [2]): 1 µg/mL (≈ 1.2 µM)
MIC (Haemophilus influenzae): 8 µg/mL (≈ 9.58 µM)
MIC (Streptococcus pneumoniae [3]): 2 µg/mL (≈ 2.4 µM)
MIC (Staphylococcus aureus [4]): 2 µg/mL (≈ 2.4 µM)
MIC (Staphylococcus aureus [5]): 16 µg/mL

CC[C@H]1OC(=O)[C@H](C)C(=O)[C@H](C)[C@@H](O[C@@H]2O[C@H](C)C[C@H](N(C)C)[C@H]2O)[C@](C)(OC(=O)NC/C=C/c2ccc(-c3ncccn3)cc2)C[C@@H](C)C(=O)[C@H](C)[C@H]2CC(=O)O[C@@]21C
MIC (Streptococcus pneumoniae [1]): 0.03 µg/mL (≈ 0.0359 µM)
MIC (Streptococcus pneumoniae [2]): 0.25 µg/mL (≈ 0.299 µM)
MIC (Haemophilus influenzae): 8 µg/mL (≈ 9.58 µM)
MIC (Streptococcus pneumoniae [3]): 0.06 µg/mL (≈ 0.0719 µM)
MIC (Staphylococcus aureus [4]): 0.12 µg/mL (≈ 0.144 µM)
MIC (Staphylococcus aureus [5]): 0.5 µg/mL

CC[C@H]1OC(=O)[C@H](C)C(=O)[C@H](C)[C@@H](O[C@@H]2O[C@H](C)C[C@H](N(C)C)[C@H]2O)[C@](C)(OC(=O)NC/C=C/c2cccc(-c3ncccn3)c2)C[C@@H](C)C(=O)[C@H](C)[C@H]2CC(=O)O[C@@]21C
MIC (Streptococcus pneumoniae [1]): 0.06 µg/mL (≈ 0.0719 µM)
MIC (Streptococcus pneumoniae [2]): 0.5 µg/mL (≈ 0.599 µM)
MIC (Haemophilus influenzae): 4 µg/mL (≈ 4.79 µM)
MIC (Streptococcus pneumoniae [3]): 0.25 µg/mL (≈ 0.299 µM)
MIC (Staphylococcus aureus [4]): 0.5 µg/mL (≈ 0.599 µM)
MIC (Staphylococcus aureus [5]): 2 µg/mL

CC[C@H]1OC(=O)[C@H](C)[C@@H](O[C@H]2C[C@@](C)(OC)[C@@H](O)[C@H](C)O2)[C@H](C)[C@@H](O[C@@H]2O[C@H](C)C[C@H](N(C)C)[C@H]2O)[C@](C)(O)C[C@@H](C)C(=O)[C@H](C)[C@@H](O)[C@]1(C)O [ERYTHROMYCIN]
MIC (Streptococcus pneumoniae [1]): 0.06 µg/mL (≈ 0.0818 µM)
MIC (Streptococcus pneumoniae [2]): 4 µg/mL (≈ 5.45 µM)
MIC (Haemophilus influenzae): 8 µg/mL (≈ 10.9 µM)
MIC (Streptococcus pneumoniae [3]): > 16 µg/mL
MIC (Staphylococcus aureus [4]): 0.5 µg/mL (≈ 0.681 µM)
MIC (Staphylococcus aureus [5]): 0.12 µg/mL

CC[C@H]1OC(=O)[C@H](C)C(=O)[C@H](C)[C@@H](O[C@@H]2O[C@H](C)C[C@H](N(C)C)[C@H]2O)[C@](C)(OC)C[C@@H](C)C(=O)[C@H](C)[C@H]2N(CCCCn3cnc(-c4cccnc4)c3)C(=O)O[C@]12C [TELITHROMYCIN]
MIC (Streptococcus pneumoniae [1]): 0.015 µg/mL (≈ 0.0185 µM)
MIC (Streptococcus pneumoniae [2]): 0.12 µg/mL (≈ 0.148 µM)
MIC (Haemophilus influenzae): 2 µg/mL (≈ 2.46 µM)
MIC (Streptococcus pneumoniae [3]): 0.06 µg/mL (≈ 0.0739 µM)
MIC (Staphylococcus aureus [4]): 0.12 µg/mL (≈ 0.148 µM)
MIC (Staphylococcus aureus [5]): 0.5 µg/mL
